# According to US9682033B2, “Methods of treating postherpetic neuralgia with a topical formulation of a spiro-oxindole compound” (Teva Pharmaceuticals International GmbH, priority 2015, dated 2017):
# Several values for one entry are separate records, joined by “and”; a condition that tells them apart may be missing. Equal values may be shown once.
# Assays:
# NaV1.7 = NaV1.7 (Homo sapiens, UniProt Q15858); test: In vitro electrophysiological studies: block of NaV1.7; type: biochemical; conditions: fold greater for the inactivated state
# Chain of NaV1.7 (Q15858 whole entry): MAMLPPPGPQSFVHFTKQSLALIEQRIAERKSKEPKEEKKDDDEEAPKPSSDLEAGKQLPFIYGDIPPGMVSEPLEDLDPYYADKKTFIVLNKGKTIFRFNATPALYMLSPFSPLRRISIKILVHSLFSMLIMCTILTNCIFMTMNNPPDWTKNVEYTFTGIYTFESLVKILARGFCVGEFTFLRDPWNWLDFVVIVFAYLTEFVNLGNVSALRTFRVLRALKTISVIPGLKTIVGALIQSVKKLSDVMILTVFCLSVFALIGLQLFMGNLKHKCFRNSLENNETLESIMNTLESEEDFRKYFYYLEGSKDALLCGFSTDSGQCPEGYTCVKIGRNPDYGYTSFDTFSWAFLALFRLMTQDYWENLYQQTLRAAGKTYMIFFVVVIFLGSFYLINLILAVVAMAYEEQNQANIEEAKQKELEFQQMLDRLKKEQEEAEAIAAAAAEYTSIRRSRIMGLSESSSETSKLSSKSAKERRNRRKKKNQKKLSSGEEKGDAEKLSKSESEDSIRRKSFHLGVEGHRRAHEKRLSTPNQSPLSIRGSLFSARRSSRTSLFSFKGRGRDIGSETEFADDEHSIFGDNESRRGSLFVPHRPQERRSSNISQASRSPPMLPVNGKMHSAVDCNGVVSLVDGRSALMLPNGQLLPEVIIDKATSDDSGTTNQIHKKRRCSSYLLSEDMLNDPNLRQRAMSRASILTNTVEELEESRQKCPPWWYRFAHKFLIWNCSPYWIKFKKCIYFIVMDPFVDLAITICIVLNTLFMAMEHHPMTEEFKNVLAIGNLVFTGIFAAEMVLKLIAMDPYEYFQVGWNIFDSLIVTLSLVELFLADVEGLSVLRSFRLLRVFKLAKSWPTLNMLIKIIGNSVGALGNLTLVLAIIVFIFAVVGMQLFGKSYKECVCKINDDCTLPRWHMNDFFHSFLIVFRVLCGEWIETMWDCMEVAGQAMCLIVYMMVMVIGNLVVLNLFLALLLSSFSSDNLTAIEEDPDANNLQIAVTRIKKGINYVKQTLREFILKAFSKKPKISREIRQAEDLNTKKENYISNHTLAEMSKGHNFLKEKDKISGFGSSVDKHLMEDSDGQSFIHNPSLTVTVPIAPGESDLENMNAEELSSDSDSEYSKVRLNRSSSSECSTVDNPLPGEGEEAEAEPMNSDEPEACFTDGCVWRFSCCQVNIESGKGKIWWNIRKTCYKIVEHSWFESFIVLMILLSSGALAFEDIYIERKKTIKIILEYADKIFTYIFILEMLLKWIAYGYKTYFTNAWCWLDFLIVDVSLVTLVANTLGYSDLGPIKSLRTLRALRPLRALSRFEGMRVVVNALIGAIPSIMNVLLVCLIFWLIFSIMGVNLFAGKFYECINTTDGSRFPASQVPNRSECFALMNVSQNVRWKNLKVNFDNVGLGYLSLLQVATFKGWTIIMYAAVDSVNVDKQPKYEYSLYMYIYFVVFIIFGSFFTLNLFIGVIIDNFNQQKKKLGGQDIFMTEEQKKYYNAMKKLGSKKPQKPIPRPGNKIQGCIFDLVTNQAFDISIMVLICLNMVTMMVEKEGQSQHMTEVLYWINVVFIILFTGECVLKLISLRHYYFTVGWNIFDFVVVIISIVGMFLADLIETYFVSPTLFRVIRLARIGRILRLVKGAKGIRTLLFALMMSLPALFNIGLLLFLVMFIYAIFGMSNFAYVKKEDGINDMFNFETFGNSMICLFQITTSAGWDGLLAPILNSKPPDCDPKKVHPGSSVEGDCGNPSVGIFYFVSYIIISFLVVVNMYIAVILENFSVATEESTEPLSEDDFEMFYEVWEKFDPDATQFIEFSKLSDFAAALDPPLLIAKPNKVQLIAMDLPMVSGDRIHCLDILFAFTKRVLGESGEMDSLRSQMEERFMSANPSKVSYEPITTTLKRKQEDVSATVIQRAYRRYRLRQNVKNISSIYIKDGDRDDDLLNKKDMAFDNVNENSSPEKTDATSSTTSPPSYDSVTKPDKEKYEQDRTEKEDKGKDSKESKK
# From the text: NaV1.7 is expressed primarily in the peripheral nervous system in both sensory and sympathetic neurons (Raymond, C. K., et al., op. cit.). Loss-of-function mutations in SCN9A (the gene encoding the alpha subunit of the NaV1.7 sodium channel) cause a human condition known as congenital indifference to pain characterized by an inability to perceive pain (Cox, J. J., et al., Nature (2006), 444:894-98; Goldberg, Y. P., et al., Clin Genet (2007), 71:311-9). Gain-of-function mutations in SCN9A are associated with inherited erythromelalgia (IEM) (Drenth, J. P., et al., J Invest Dermatology (2005), 124:1333-8), which is characterized by spontaneous or easily evoked severe pain. Furthermore, up to 29% of biopsy-proven cases of idiopathic small-fiber neuropathy manifesting mainly as distal severe pain (Faber, C. G., et al., Ann Neurol (2012), 71:26-39) are associated with gain-of-function NaV1.7 channel mutations.
# [1] = tested on: complete Freund's adjuvant (CFA) model of inflammatory pain; test: Complete Freund's adjuvant (CFA) model of inflammatory pain; type: in vivo; conditions: rat, topical
# [2] = tested on: streptozotocin-induced neuropathic pain model; test: Streptozotocin-induced neuropathic pain model, mechanical allodynia (paw withdrawal threshold); type: in vivo, rats; conditions: topical, diabetic neuropathic pain model
# From the text: Topical 4% Test Pharmaceutical Composition was compared with lidocaine and diclofenac for relief of mechanical allodynia in the streptozotocin-induced neuropathic pain model in rats.
# [3] = Protein binding in rat serum; type: in vitro ADME
# [4] = Protein binding in dog plasma; type: in vitro ADME
# [5] = Protein binding in human plasma; type: in vitro ADME
# human hepatocytes = test: In vitro metabolic stability in hepatocytes (human); type: in vitro ADME; conditions: ^14C-spiro-oxindole compound
# From the text: (§1) A total of 8 metabolites were identified in samples (in vitro and in vivo) from rats, dogs, and humans. All metabolites found in humans were also found in the Good Laboratory Practice (GLP) toxicology species, the rat. Following oral administration of spiro-oxindole compound to humans, spiro-oxindole compound and 3 of its metabolites (M1, M5, and M6) were measurable. A similar metabolic profile was observed following topical administration to humans, albeit at much lower plasma concentrations, except metabolite M1 was not detected following human topical administration.
# dog hepatocytes = test: In vitro metabolic stability in hepatocytes (dog); type: in vitro ADME; conditions: ^14C-spiro-oxindole compound
# From the text: as §1
# rat hepatocytes = test: In vitro metabolic stability in hepatocytes (rat); type: in vitro ADME; conditions: ^14C-spiro-oxindole compound
# From the text: as §1
# [6] = Metabolite identification in samples (in vitro and in vivo); type: in vitro ADME; conditions: samples (in vitro and in vivo) from rats, dogs, and humans
# From the text: as §1
# CYP450 2C19 (CYP2C19) = CYP450 2C19 (CYP2C19) (Homo sapiens, UniProt P33261); test: Reaction phenotyping with recombinant human CYP450 enzymes: CYP2C19; type: in vitro ADME
# Chain of CYP450 2C19 (CYP2C19) (P33261 whole entry): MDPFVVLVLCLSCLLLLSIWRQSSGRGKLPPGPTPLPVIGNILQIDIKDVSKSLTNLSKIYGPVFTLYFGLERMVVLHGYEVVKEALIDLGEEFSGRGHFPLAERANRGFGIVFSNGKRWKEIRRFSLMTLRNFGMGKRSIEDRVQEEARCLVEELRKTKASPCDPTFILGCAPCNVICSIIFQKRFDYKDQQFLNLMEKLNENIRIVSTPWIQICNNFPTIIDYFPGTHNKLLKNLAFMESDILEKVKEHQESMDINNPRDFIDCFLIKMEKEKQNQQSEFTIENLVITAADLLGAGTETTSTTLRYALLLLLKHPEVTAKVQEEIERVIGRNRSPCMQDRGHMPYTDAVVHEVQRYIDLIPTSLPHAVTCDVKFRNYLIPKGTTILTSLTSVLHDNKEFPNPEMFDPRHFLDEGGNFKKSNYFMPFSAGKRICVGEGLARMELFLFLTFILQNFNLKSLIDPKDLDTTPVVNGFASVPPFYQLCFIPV
# 3A4 (CYP3A4) = 3A4 (CYP3A4) (Homo sapiens, UniProt P08684); test: Reaction phenotyping with recombinant human CYP450 enzymes: CYP3A4; type: in vitro ADME
# Chain of 3A4 (CYP3A4) (P08684 whole entry): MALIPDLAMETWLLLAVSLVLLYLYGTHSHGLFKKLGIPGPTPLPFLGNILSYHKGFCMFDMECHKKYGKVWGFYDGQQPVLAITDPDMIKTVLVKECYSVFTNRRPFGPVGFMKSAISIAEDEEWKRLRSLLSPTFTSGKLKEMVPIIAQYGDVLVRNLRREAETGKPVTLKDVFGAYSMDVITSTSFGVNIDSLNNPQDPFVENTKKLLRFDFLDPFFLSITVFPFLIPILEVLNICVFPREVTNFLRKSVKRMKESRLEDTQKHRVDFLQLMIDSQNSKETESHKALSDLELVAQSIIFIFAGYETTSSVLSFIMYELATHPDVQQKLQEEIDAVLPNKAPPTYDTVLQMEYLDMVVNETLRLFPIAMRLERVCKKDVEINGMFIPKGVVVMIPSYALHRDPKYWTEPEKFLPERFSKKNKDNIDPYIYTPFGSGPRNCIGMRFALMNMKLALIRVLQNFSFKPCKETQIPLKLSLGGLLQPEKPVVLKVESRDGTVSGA
# CYP450 2D6 = CYP450 2D6 (Homo sapiens, UniProt P10635); test: Reaction phenotyping with recombinant human CYP450 enzymes: CYP2D6; type: in vitro ADME; conditions: recombinant human CYP450 2D6
# Chain of CYP450 2D6 (P10635 whole entry): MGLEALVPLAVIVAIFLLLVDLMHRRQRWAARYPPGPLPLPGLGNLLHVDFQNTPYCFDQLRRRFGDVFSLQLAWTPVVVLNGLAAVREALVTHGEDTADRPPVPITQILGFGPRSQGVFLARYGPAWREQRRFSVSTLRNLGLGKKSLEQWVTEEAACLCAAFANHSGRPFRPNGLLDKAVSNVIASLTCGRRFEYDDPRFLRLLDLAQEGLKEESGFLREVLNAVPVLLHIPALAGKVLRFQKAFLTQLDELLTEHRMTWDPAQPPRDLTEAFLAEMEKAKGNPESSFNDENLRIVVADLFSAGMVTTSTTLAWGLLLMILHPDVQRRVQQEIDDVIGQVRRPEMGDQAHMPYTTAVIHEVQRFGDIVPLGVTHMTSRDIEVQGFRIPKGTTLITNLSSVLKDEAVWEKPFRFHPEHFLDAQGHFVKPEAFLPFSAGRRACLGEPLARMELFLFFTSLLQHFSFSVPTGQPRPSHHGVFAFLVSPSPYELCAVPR
# CYP450 2C9 = CYP450 2C9 (Homo sapiens, UniProt P11712); test: Reaction phenotyping with recombinant human CYP450 enzymes: CYP2C9; type: in vitro ADME; conditions: recombinant human CYP450 2C9
# Chain of CYP450 2C9 (P11712 whole entry): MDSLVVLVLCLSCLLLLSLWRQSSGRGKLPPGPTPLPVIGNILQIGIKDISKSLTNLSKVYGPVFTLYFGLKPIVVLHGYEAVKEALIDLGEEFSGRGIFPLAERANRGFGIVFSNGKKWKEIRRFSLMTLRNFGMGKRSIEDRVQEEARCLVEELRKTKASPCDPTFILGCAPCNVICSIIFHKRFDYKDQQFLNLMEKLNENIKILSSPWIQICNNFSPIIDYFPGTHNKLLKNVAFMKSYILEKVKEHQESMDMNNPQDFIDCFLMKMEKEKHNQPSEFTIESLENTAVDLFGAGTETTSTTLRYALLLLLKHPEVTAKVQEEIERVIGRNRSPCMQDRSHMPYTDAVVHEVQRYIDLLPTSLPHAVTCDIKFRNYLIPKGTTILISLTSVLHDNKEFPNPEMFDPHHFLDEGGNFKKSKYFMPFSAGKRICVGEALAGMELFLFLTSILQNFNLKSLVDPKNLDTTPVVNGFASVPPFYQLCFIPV
# CYP3A4 [7] = test: In vitro CYP3A4 induction; type: in vitro ADME
# CYP3A4 [8] = test: Drug-drug interaction study in dogs, oral spiro-oxindole compound with iv midazolam as CYP3A4 substrate; type: in vivo; conditions: oral administration
# [9] = tested on: bacterial reverse mutation; test: Bacterial reverse mutation assay (GLP); type: cell-based
# From the text: The spiro-oxindole compound was not genotoxic in the standard battery of genotoxicity tests (GLP), including a bacterial reverse mutation assay, an in vitro chromosome aberration assay in cultured human lymphocytes, and an in vivo rat bone marrow micronucleus test.
# [10] = Mouse local lymph node assay; type: in vivo
# [11] = Phototoxicity assays (in vitro or in vivo)
# CYP2C19 = test: clinical; conditions: human, in vivo
# From the text: This was a single center, open-label, 1-sequence drug-drug interaction study in 32 healthy adult male and female subjects. The study consisted of a 28-day screening period, a 10-day inpatient treatment period, and a follow-up visit. Subjects meeting the study inclusion/exclusion requirements were admitted to the clinical research unit on day −1 and were confined until day 10.
# Blood samples were collected for the assessment of the pharmacokinetics of midazolam and omeprazole.
# The primary pharmacokinetic endpoints were the geometric mean ratios (90% confidence intervals [CIs]) for Cmax, AUC0-t, and AUC0-inf for midazolam and omeprazole on day 9 versus day 1.
# Blood samples were collected for the assessment of the pharmacokinetics of the major metabolites of midazolam (1-OH-midazolam) and omeprazole (5-OH-omeprazole), and for the spiro-oxindole compound. Further secondary pharmacokinetic variables included Cmax, tmax, AUC0-t, AUC0-inf, CL/F, λz, t1/2, and % AUCext for 1-OH-midazolam and 5-OH-omeprazole, on days 1 and 9, and Cmax, morning predose concentrations (Ctrough), average plasma concentration over the dosing interval (Cave), and area under the plasma concentration-time curve over the dosing interval (AUC0-τ) were presented for the spiro-oxindole compound.
# Descriptive statistics (n, mean, geometric mean, standard deviation [SD], % CV, median, minimum, and maximum) were used to summarize plasma midazolam, omeprazole and their metabolites, and the spiro-oxindole compound concentration for all subjects overall at each scheduled time point. Descriptive statistics (as noted above) were also used to summarize plasma omeprazole, 5-OH-omeprazole, and the spiro-oxindole compound concentration for all subjects overall by CYP2C19 genotype at each scheduled time point. Pharmacokinetic parameters were derived by noncompartmental analysis. Descriptive statistics (as noted above) were used to summarize the calculated pharmacokinetic parameters for midazolam, omeprazole and their metabolites, and the spiro-oxindole compound by treatment for all subjects. Descriptive statistics (as noted above) were also used to summarize the calculated pharmacokinetic parameters for omeprazole, 5-OH-omeprazole, and the spiro-oxindole compound by treatment and CYP2C19 genotype. Plots of geometric mean and individual plasma concentrations and of select pharmacokinetic parameters for midazolam, omeprazole and their metabolites and the spiro-oxindole compound at select sampling times were provided. Additionally, plots of individual select pharmacokinetic parameters by CYP2C19 phenotype for omeprazole at select time points were provided.
# [12] = tested on: CCI model of neuropathic pain; test: Chronic constriction injury (CCI) model of neuropathic pain; conditions: rat, in vivo
compound,measurement,setting,value
"O=C1N(Cc2ccc(C(F)(F)F)o2)c2ccccc2[C@]12COc1cc3c(cc12)OCO3 [spiro-oxindole compound, (S)-1′-{[5-(trifluoromethyl)furan-2-yl]methyl}spiro[furo[2,3-f][1,3]benzodioxole-7,3′-indol]-2′(1′H)-one]","potency of block against NaV1.7, inactivated state compared with resting state",NaV1.7,approximately 220 fold
same,minimum effective dose associated with pain relief,[1],2 % (w/w)
same,efficacy compared with 5% lidocaine,[2],superior efficacy to 5% lidocaine
same,protein bound,[3],99.6%
same,protein bound,[4],98.3%
same,protein bound,[5],99.4%
same,in vitro metabolic stability in hepatocytes,human hepatocytes,80%
same,in vitro metabolic stability in hepatocytes,dog hepatocytes,61%
same,in vitro metabolic stability in hepatocytes,rat hepatocytes,16%
same,total number of metabolites identified,[6],8 metabolites
same,contribution to spiro-oxindole compound metabolism,CYP450 2C19 (CYP2C19),major contributors
same,contribution to spiro-oxindole compound metabolism,3A4 (CYP3A4),major contributors
same,contribution to spiro-oxindole compound metabolism,CYP450 2D6,likely to play a less extensive role
same,contribution to spiro-oxindole compound metabolism,CYP450 2C9,limited or no involvement
same,induction of CYP3A4,CYP3A4 [7],may also be a strong inducer of CYP3A4 with an activation potency similar to rifampicin
same,spiro-oxindole compound plasma concentrations without evidence of a DDI,CYP3A4 [8],up to 752 ng/mL and ≤ 1.8 μM
same,drug-drug interaction with iv midazolam (CYP3A4 substrate),"CYP3A4 [8]; plasma concentrations up to 752 ng/mL (i.e., 1.8 μM)",no evidence of a DDI
same,genotoxicity,[9],not genotoxic
same,skin sensitization,[10],not a skin sensitizer
same,phototoxicity potential,[11],did not show phototoxicity potential
same,"Geometric LS mean ration (%) (test/reference), omeprazole AUC0-inf",CYP2C19; both,105.751%
same,"Geometric LS mean ration (%) (test/reference), omeprazole AUC0-t",CYP2C19; both,101.553%
same,"Geometric LS mean ration (%) (test/reference), omeprazole Cmax",CYP2C19; both,98.939%
same,effect on systemic exposure to 5-OH-omeprazole (in words),CYP2C19; both,no relevant effect on systemic exposure to 5-OH-omeprazole
same,effect on omeprazole pharmacokinetics (in words),CYP2C19,no relevant effect on omeprazole pharmacokinetics
same,efficacy compared with gabapentin,[12],comparable efficacy to gabapentin
